Reference: ChEMBL document CHEMBL4819124, “Folate-targeted verrucarin A reduces the number of activated macrophages in a mouse model of acute peritonitis” (Bioorg Med Chem Lett, 2021)
pIC50: −log10 of the molar value. Active and inactive are the calls of the source. The rule behind the calls is not given here. *1 amine or outer side, *2 acyl side, *3 side chain or, on linkers, in order; H or OH if unused. Where a SMILES comes first, the peptide text is derived from it. The star is where a group is joined. Pteroyl = Nc1nc2ncc(CNc3ccc(C(=O)*)cc3)nc2c(=O)[nH]1; γGlu = O=C(O)[C@H](CCC(=O)[*:2])N[*:1]

Assays:
[1] = test system: KB; assay: Cytotoxicity against human KB cells assessed as reduction in cell viability treated for 1 hr followed by 72 hrs incubation in drug free media by [3H]-thymidine incorporation assay; type: cell-based
[2] = test system: RAW264.7; assay: Cytotoxicity against mouse RAW264.7 cells assessed as reduction in cell viability treated for 1 hr followed by 72 hrs incubation in drug free media by [3H]-thymidine incorporation assay; type: functional, cell-based
[3] = test system: Mus musculus; assay: Antiinflammatory activity against mouse model of thioglycolate induced peritonitis assessed as decrease in FR+ macrophages in peritoneal fluid at 1000 nmol/kg, ip dosed twice everyday measured after 3 days by Alexafluor-488 goat anti-rabbitIgG staining based flow cytometric analysis relative to control; type: functional, organism-based; conditions: time 3.0 day
[4] = test system: Mus musculus; assay: Antiinflammatory activity against mouse model of thioglycolate induced peritonitis assessed as decrease in total macrophage population in peritoneal fluid at 1000 nmol/kg, ip dosed twice everyday measured after 3 days by staining based flow cytometric analysis relative to control; type: functional, organism-based; conditions: time 3.0 day
[5] = test system: Mus musculus; assay: Antiinflammatory activity against mouse model of thioglycolate induced peritonitis assessed as effect on lymphocytes in peritoneal fluid at 1000 nmol/kg, ip dosed twice everyday measured after 3 days by staining based flow cytometric analysis relative to control; type: functional, organism-based; conditions: time 3.0 day
[6] = test system: Mus musculus; assay: Antiinflammatory activity against mouse model of thioglycolate induced peritonitis assessed as effect on granulocytes in peritoneal fluid at 1000 nmol/kg, ip dosed twice everyday measured after 3 days by staining based flow cytometric analysis relative to control; type: functional, organism-based; conditions: time 3.0 day
[7] = target: Folate receptor alpha (Homo sapiens, UniProt P15328); assay: Displacement of [3H]-folic acid from FRalpha (unknown origin) expressed in human KB cells after 1 hr; type: cell-based
Chain of Folate receptor alpha (P15328 whole entry): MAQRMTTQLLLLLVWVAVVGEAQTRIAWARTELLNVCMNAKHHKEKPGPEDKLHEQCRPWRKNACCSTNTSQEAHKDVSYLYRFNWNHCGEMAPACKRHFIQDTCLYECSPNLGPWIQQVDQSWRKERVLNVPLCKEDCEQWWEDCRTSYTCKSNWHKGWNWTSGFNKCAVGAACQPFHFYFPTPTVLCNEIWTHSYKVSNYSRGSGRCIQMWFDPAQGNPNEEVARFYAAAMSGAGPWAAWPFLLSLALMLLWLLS

[8] = target: Folate receptor beta (Homo sapiens, UniProt P14207); assay: Displacement of [3H]-folic acid from FRbeta (unknown origin) expressed in mouse RAW264.7 cells after 1 hr; type: cell-based
Chain of Folate receptor beta (P14207 whole entry): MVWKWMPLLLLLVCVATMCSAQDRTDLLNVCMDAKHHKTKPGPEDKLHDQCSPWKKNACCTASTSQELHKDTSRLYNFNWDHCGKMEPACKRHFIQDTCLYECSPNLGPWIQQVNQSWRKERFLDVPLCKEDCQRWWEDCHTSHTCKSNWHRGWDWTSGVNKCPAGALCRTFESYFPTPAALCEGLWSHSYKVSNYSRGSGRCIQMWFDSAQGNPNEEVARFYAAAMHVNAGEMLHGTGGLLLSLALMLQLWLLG

Structure (SMILES)	pIC50 [1]	pIC50 [2]	Activity [3]	Activity [4]	Activity [5]	Activity [6]	pIC50 [7]	pIC50 [8]
CC1=C[C@H]2O[C@@H]3C[C@H]4OC(=O)/C=C\C=C\C(=O)OCC[C@@H](C)[C@H](OC(=O)OCCSSC[C@H](NC(=O)[C@H](CC(=O)O)NC(=O)[C@H](CC(=O)O)NC(=O)[C@H](CCCNC(=N)N)NC(=O)[C@H](CC(=O)O)NC(=O)CC[C@H](NC(=O)c5ccc(NCc6cnc7nc(N)[nH]c(=O)c7n6)cc5)C(=O)O)C(=O)O)C(=O)OC[C@@]2(CC1)[C@]4(C)[C@]31CO1	6.28	8.07	Active	Active	inactive	inactive	–	–
N=C(N)NCCC[C@H](NC(=O)[C@H](CC(=O)O)NC(=O)CC[C@H](NC(=O)c1ccc(NCc2cnc3nc(N)[nH]c(=O)c3n2)cc1)C(=O)O)C(=O)N[C@@H](CC(=O)O)C(=O)N[C@@H](CC(=O)O)C(=O)N[C@@H](CS)C(=O)O ({Pteroyl-γGlu}-DRDDC-OH)	–	–	–	–	–	–	8.85	9.25
